Results from US11214803B2, “Modulators of YAP1 expression” (Ionis Pharmaceuticals, Inc., priority 2019, dated 2022).
Strand notation (5' to 3'): a small letter for the sugar, then the base; units joined by * are phosphorothioate-linked, units joined directly phosphodiester-linked; [ ] holds rarer units or linkages, { } end groups; capitals alone tell only the bases. k = constrained ethyl (cEt); [5mC] = 5-methylcytosine; d = 2'-deoxy (DNA)

system: Yap1 mRNA; experiment: Antisense inhibition of human Yap1 in A-431 cells by cEt gapmers, single dose (Example 3, RTS36584); type: cell-based; details: Table 26; Yap1 mRNA by 3-10-3 cEt gapmers targeting SEQ ID NO.: 1, and 2; percent of untreated control
Method in brief: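 A-431 cells (5,000/well) took up the 3-10-3 cEt gapmers by free uptake at 2,000 nM for about 48 h. Yap1 mRNA was measured by RT-qPCR with primer probe set RTS36584, normalized to RiboGreen total RNA, and given as % of untreated control.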

Row | Substance | YAP1 (% UTC)
1 | 1075948 (antisense kG*kG*kA*d[5mC]*dT*dA*dA*dA*dG*dA*dA*dT*dA*k[5mC]*kA*kG) [compound 1075948] | 31
2 | 1075980 (k[5mC]*kA*kA*dT*dA*dT*d[5mC]*d[5mC]*dT*dA*d[5mC]*dA*d[5mC]*k[5mC]*kA*kT; antisense) [compound 1075980] | 43
3 | 1076012 (kA*kA*kT*dA*dT*dA*dA*dA*d[5mC]*dA*dA*dT*dA*kG*k[5mC]*kG; antisense) [compound 1076012] | 34
4 | 1076044 (kA*kT*k[5mC]*dA*dA*dA*dA*dA*dG*dG*d[5mC]*dT*dA*kT*kT*kG; antisense) [compound 1076044] | 73
5 | 1076076 (kT*kA*kT*d[5mC]*dA*dA*dT*dA*d[5mC]*dT*dT*dT*dA*kG*kT*k[5mC]; antisense) [compound 1076076] | 57
6 | 1076108 (kA*kA*kA*d[5mC]*dA*dA*dA*dA*d[5mC]*d[5mC]*dG*dG*d[5mC]*kT*kT*kT; antisense) [compound 1076108] | 116
7 | 1076140 (kA*k[5mC]*kG*dA*dA*dA*dA*dA*dA*dG*d[5mC]*d[5mC]*dA*kA*k[5mC]*kA; antisense) [compound 1076140] | 28
8 | 1076172 (kT*kA*kT*dT*dA*dG*dT*dA*dA*dA*dG*dA*dG*kT*kA*k[5mC]; antisense) [compound 1076172] | 98
9 | 1076204 (kG*kA*kT*dA*dA*dT*dG*dA*dA*dT*d[5mC]*d[5mC]*dT*kT*kG*kT; antisense) [compound 1076204] | 11

same assay, conditions: Table 27; Yap1 mRNA by 3-10-3 cEt gapmers targeting SEQ ID NO.: 1, and 2; percent of untreated control

Row | Substance | YAP1 (% UTC)
10 | 1075949 (antisense kT*kA*kG*dG*dA*dA*d[5mC]*dA*d[5mC]*d[5mC]*dA*dA*dG*kG*kT*kT) [compound 1075949] | 48
11 | 1075981 (kA*kA*kG*d[5mC]*dA*dA*dT*dA*dT*d[5mC]*d[5mC]*dT*dA*k[5mC]*kA*k[5mC]; antisense) [compound 1075981] | 40
12 | 1076013 (kG*kT*kT*dT*dA*dA*dT*dA*d[5mC]*d[5mC]*dT*d[5mC]*dT*kG*kA*k[5mC]; antisense) [compound 1076013] | 76
13 | 1076045 (kG*kT*kG*d[5mC]*dA*dA*dT*dA*dA*dA*dT*dA*dG*kT*kT*k[5mC]; antisense) [compound 1076045] | 11
14 | 1076109 (k[5mC]*kT*kT*dA*dA*dA*dT*dG*dA*d[5mC]*d[5mC]*dA*dA*kT*kT*k[5mC]; antisense) [compound 1076109] | 23
15 | 1076141 (kT*kA*k[5mC]*dG*dA*dA*dA*dA*dA*dA*dG*d[5mC]*d[5mC]*kA*kA*k[5mC]; antisense) [compound 1076141] | 29
16 | 1076173 (k[5mC]*kA*kA*dT*dA*dT*dA*dT*d[5mC]*d[5mC]*dT*dG*dA*kG*kA*kT; antisense) [compound 1076173] | 91
17 | 1076205 (kT*kA*kG*dT*dA*dT*dA*dA*dT*dT*d[5mC]*dA*dT*kG*kA*k[5mC]; antisense) [compound 1076205] | 51

same assay, conditions: Table 28; Yap1 mRNA as percent of untreated control; 3-10-3 cEt gapmers targeting SEQ ID NO.: 1, and 2

Row | Substance | YAP1 (% UTC)
18 | 1075950 (antisense kT*kG*kA*d[5mC]*dA*dA*dT*dA*d[5mC]*d[5mC]*dT*dT*d[5mC]*k[5mC]*kT*kA) [compound 1075950] | 30
19 | 1075982 (k[5mC]*kA*kT*dG*dA*dA*dA*dG*d[5mC]*dA*dA*dT*dA*kT*k[5mC]*k[5mC]; antisense) [compound 1075982] | 23
20 | 1076014 (kA*kA*kT*d[5mC]*dA*dA*d[5mC]*d[5mC]*dT*dA*dT*dG*dA*kG*kG*kT; antisense) [compound 1076014] | 98
21 | 1076046 (k[5mC]*kT*kT*dA*dA*dA*dT*dG*dG*dT*dG*d[5mC]*dA*kA*kT*kA; antisense) [compound 1076046] | 28
22 | 1076078 (k[5mC]*kT*kT*dT*dA*dG*d[5mC]*d[5mC]*dT*d[5mC]*dT*dA*dT*kA*k[5mC]*k[5mC]; antisense) [compound 1076078] | 23
23 | 1076110 (k[5mC]*kT*kT*dT*dA*d[5mC]*d[5mC]*dT*dA*dA*dA*dT*dG*kT*kT*kG; antisense) [compound 1076110] | 53
24 | 1076142 (kA*kT*kA*d[5mC]*dG*dA*dA*dA*dA*dA*dA*dG*d[5mC]*k[5mC]*kA*kA; antisense) [compound 1076142] | 38
25 | 1076206 (k[5mC]*kA*kA*dT*dA*dA*dA*d[5mC]*dT*dT*dA*d[5mC]*d[5mC]*k[5mC]*kT*kT; antisense) [compound 1076206] | 55

same assay, conditions: Table 29; Yap1 mRNA as percent of untreated control; 3-10-3 cEt gapmers targeting SEQ ID NO.: 1, and 2

Row | Substance | YAP1 (% UTC)
26 | 1075951 (antisense k[5mC]*kA*k[5mC]*dG*dG*dA*dA*dG*dA*dG*d[5mC]*dT*dT*kG*k[5mC]*kA) [compound 1075951] | 34
27 | 1076047 (kA*k[5mC]*kT*dT*dA*dA*dA*dT*dG*dG*dT*dG*d[5mC]*kA*kA*kT; antisense) [compound 1076047] | 34
28 | 1076079 (kA*kA*kG*d[5mC]*dA*dA*dT*dA*dT*dA*dT*dG*dG*k[5mC]*k[5mC]*kT; antisense) [compound 1076079] | 37
29 | 1076111 (kA*kA*kT*dT*dA*dG*dT*dT*dA*dG*dG*dA*dT*kA*kT*k[5mC]; antisense) [compound 1076111] | 67
30 | 1076175 (k[5mC]*kA*kA*dT*dA*dG*dG*dT*dA*dA*d[5mC]*dA*dG*kG*kT*kA; antisense) [compound 1076175] | 15
31 | 1076207 (kA*kG*kT*d[5mC]*dA*dA*dT*dA*dA*dA*d[5mC]*dT*dT*kA*k[5mC]*k[5mC]; antisense) [compound 1076207] | 58

same assay, conditions: Table 34; Yap1 mRNA as percent of untreated control; 3-10-3 cEt gapmers targeting SEQ ID NO: 1 and 2; single dose

Row | Substance | YAP1 (% UTC)
32 | 1075956 (kT*kA*kT*dA*dA*dA*dG*d[5mC]*dA*dA*dT*dG*d[5mC]*kG*kA*kT; antisense) [compound 1075956] | 27
33 | 1075988 (kA*kA*kT*dT*dA*dA*dG*d[5mC]*dT*dT*d[5mC]*dT*d[5mC]*kT*kA*kG; antisense) [compound 1075988] | 90
34 | 1076020 (k[5mC]*k[5mC]*k[5mC]*d[5mC]*dA*dA*d[5mC]*dA*d[5mC]*dT*dA*dA*dT*kA*kG*kG; antisense) [compound 1076020] | 60
35 | 1076052 (kG*k[5mC]*kA*dA*dT*dA*dA*dA*dG*d[5mC]*dT*dG*dA*kA*k[5mC]*kT; antisense) [compound 1076052] | 23
36 | 1076116 (kG*kA*kA*dA*dA*dT*dA*dG*d[5mC]*d[5mC]*d[5mC]*dA*dT*kT*kA*kG; antisense) [compound 1076116] | 25
37 | 1076148 (kT*kA*kT*dT*dA*dA*d[5mC]*dT*d[5mC]*dA*d[5mC]*dG*dA*kA*kG*kA; antisense) [compound 1076148] | 52
38 | 1076180 (kA*kT*kA*dA*dT*dT*dA*dG*d[5mC]*d[5mC]*dA*dA*d[5mC]*k[5mC]*kA*k[5mC]; antisense) [compound 1076180] | 42
39 | 1076212 (k[5mC]*kA*kA*dA*dT*dT*dT*dA*dT*dA*dT*dG*d[5mC]*kT*k[5mC]*k[5mC]; antisense) [compound 1076212] | 15

same assay, conditions: Table 35; Yap1 mRNA as percent of untreated control; 3-10-3 cEt gapmers targeting SEQ ID NO: 1 and 2; single dose

Row | Substance | YAP1 (% UTC)
40 | 1075925 (antisense kA*kA*k[5mC]*d[5mC]*dT*dA*dT*dA*dT*dT*dA*dT*dT*kT*kG*k[5mC]) [compound 1075925] | 28
41 | 1075957 (k[5mC]*kT*kA*dT*dA*dA*dA*dG*d[5mC]*dA*dA*dT*dG*k[5mC]*kG*kA; antisense) [compound 1075957] | 28
42 | 1075989 (kG*k[5mC]*kT*dA*dA*dA*dA*dT*dT*dA*dA*dG*d[5mC]*kT*kT*k[5mC]; antisense) [compound 1075989] | 78
43 | 1076021 (k[5mC]*kA*kT*dT*dA*dA*dT*dA*dA*dA*dG*dT*dT*kA*k[5mC]*k[5mC]; antisense) [compound 1076021] | 95
44 | 1076053 (kT*kA*k[5mC]*d[5mC]*dA*dA*d[5mC]*dA*dA*dG*dG*d[5mC]*dA*kT*k[5mC]*kA; antisense) [compound 1076053] | 55
45 | 1076117 (k[5mC]*kT*kA*dG*dA*dA*dA*dA*dT*dA*dG*d[5mC]*d[5mC]*k[5mC]*kA*kT; antisense) [compound 1076117] | 15
46 | 1076149 (kT*kT*kA*dT*dT*dA*dA*d[5mC]*dT*d[5mC]*dA*d[5mC]*dG*kA*kA*kG; antisense) [compound 1076149] | 24
47 | 1076181 (kT*kA*kT*dA*dA*dT*dT*dA*dG*d[5mC]*d[5mC]*dA*dA*k[5mC]*k[5mC]*kA; antisense) [compound 1076181] | 26
48 | 1076213 (kT*k[5mC]*kT*d[5mC]*dA*dA*dG*dG*dA*dA*dT*dT*dG*k[5mC]*k[5mC]*kT; antisense) [compound 1076213] | 27
